The test system of test [1] is K562 cells. Briefly: CellTiter-Blue cell viability, K562. The test is classed as cell-based. The following applies: Homo sapiens, 72 hrs exposure. How it is done: (§1) Anti-cancer efficacy of exemplary compounds of this application was assessed in vitro in different cancer cell lines. Cell viability was examined following treatment at various concentration of inhibitor (0.097656-50 μM) using a cell Titer-Blue cell viability assay. 1×10^4 cells (NHF, MV4-11, K562 and MOLM-13 cells)/well were plated in 96-well assay plates in culture medium. All cells were grown in DMEM, IMDM and RPMI-1640 supplemented with 10% FBS. After 24 hrs, test compounds and vehicle controls were added to appropriate wells so the final volume was 100 μl in each well. The cells were cultured for the desired test exposure period (72 hrs) at 37° C. and 5% CO2. The assay plates were removed from 37° C. incubator and 20 μl/well of CellTiter-Blue® Reagent was added. The plates were incubated using standard cell culture conditions for 1-4 hours and the plates were shaken for 10 seconds and record fluorescence at 560/590 nm.
In general terms: Alamar Blue is a resazurin reagent that responds to reducing activity.

Test [2] deals with MV4-11 cells. The test can be described thus: CellTiter-Blue cell viability, MV-4-11. The following applies: Homo sapiens, 72 hrs exposure. The test is classed as cell-based. The protocol: as §1
Test [3] relates to tubulin. Briefly: Tubulin polymerization assay. The following applies: for % Inhibition: Vmax normalized to tubulin only control; for % D.O.P.: degree of polymerization relative to tubulin control. The test is classed as biochemical. How it is done:
A96-well half-area clear flat-bottom microplate (Corning® #3697) was pre-heated in a plate reader (Cytation 3, BioTek) at 37° C. for 15 minutes prior to the start of each assay. Tubulin polymerization buffer (80 mM PIPES pH 6.9, 2 mM MgCl2, 0.5 mM EGTA, 15% glycerol, 1 mM GTP) was prepared from stock solutions and placed on ice. Inhibitors were prepared to M concentrations in buffer (80 mM PIPES pH 6.9, 2 mM MgCl2, 0.5 mM EGTA, 5% DMSO) from DMSO stock solutions. After the assay plate was pre-warmed, 10 μL of inhibitor or buffer control was added to selected wells. Every assay contained a tubulin only negative control for normalization of data, and a batabulin positive control. The assay plate was incubated at 37° C. for 3 minutes. During this time, a frozen aliquot of tubulin (10 mg/mL) in buffer (80 mM PIPES pH 6.9, 2 mM MgCl2, 0.5 mM EGTA) was defrosted by placing in a room temperature water bath. Once thawed, 200 μL of tubulin was mixed with 420 μL ice cold tubulin polymerization buffer (3 mg/mL tubulin in 80 mM PIPES, pH 6.9, 2 mM MgCl2, 0.5 mM EGTA, 1 mM GTP, 10.2% glycerol). To a 96-well plate on ice, aliquots of 100 μL tubulin was added to each well. From this plate, 90 μL of tubulin was immediately pipetted into all sample wells of the warmed assay plate using a multi-channel pipette. The assay plate was immediately put in the reader at 37° C. and shook for 5 s with orbital shaking at medium speed. The reader recorded the absorbance at 340 nm every 15 s for 30 min.
The resulting absorbance curves were normalized by subtracting each data point by the absorbance at time 0.
The largest change in absorbance over the assay time course was also recorded and related to the tubulin control as the % degree of polymerization (% D.O.P.).

Test [4] has as its system MOLM-13 cells. The test can be described thus: CellTiter-Blue cell viability, MOLM-13. The format is cell-based. The following applies: Homo sapiens, 72 hrs exposure. The protocol:
as §1

Where only a bound is given, the exact number is not on record here.

A word on the IC50: it is the concentration at which inhibition is half-maximal. Lower therefore signals higher potency. Take `CN(C)S(=O)(=O)c1c(O)c(F)c(F)c(F)c1F` [Compound I-3, 2,3,4,5-tetrafluoro-6-hydroxy-N,N-dimethylbenzenesulfonamide]: the IC50 in test [1] and in test [2] was greater than 10 µM in each case.
Turning to `COc1c(F)c(F)c(F)c(F)c1S(=O)(=O)N(C)C` [Compound I-4, 2,3,4,5-tetrafluoro-6-methoxy-N,N-dimethylbenzenesulfonamide], the IC50 in test [2] was in the range of 1 to 10 µM.
For the molecule `CN(C)S(=O)(=O)c1c(F)c(F)c(F)c(F)c1OCC(F)(F)F` [Compound I-10, 2,3,4,5-tetrafluoro-N,N-dimethyl-6-(2,2,2-trifluoroethoxy)benzenesulfonamide], the IC50 in test [1] was greater than 10 µM; in test [2], 1 to 10 µM.
Molecule `COc1ccc(NS(=O)(=O)c2c(O)c(F)c(F)c(F)c2F)cc1F` [Compound I-63, 2,3,4,5-tetrafluoro-N-(3-fluoro-4-methoxyphenyl)-6-hydroxybenzenesulfonamide] returned an IC50 in test [1] greater than 10 µM. Besides, in test [3], the “% Inhibition” value is reported as “A (<10%)” and the “% D.O.P.” value is given as “A (>85%)”. Moreover, in test [2], the IC50 was greater than 10 µM.
With `COc1ccc(NS(=O)(=O)c2c(F)c(F)c(F)c(F)c2OC(F)F)cc1F` [Compound I-65, 2-(difluoromethoxy)-3,4,5,6-tetrafluoro-N-(3-fluoro-4-methoxyphenyl)benzenesulfonamide], in test [4], the IC50 lay within 0.1 to 1 µM. Moreover, in test [3], the “% Inhibition” value is “C (>20%)” and the “% D.O.P.” value is “B (< 85%)”. Also, the IC50 in test [2] was no more than 0.1 µM.
The matching figures for `COc1ccc(NS(=O)(=O)c2c(F)c(F)c(F)c(F)c2OCCF)cc1F` [Compound I-66, 2,3,4,5-tetrafluoro-N-(3-fluoro-4-methoxyphenyl)-6-(2-fluoroethoxy)benzenesulfonamide]: 1 to 10 µM, “B (10-20%)”, “B (< 85%)” and 0.1 to 1 µM.
For `COc1ccc(NS(=O)(=O)c2c(F)c(F)c(F)c(F)c2OC2CCC2)cc1F` [Compound I-69, 2-cyclobutoxy-3,4,5,6-tetrafluoro-N-(3-fluoro-4-methoxyphenyl)benzenesulfonamide], in test [3], the “% Inhibition” value is given as “A (<10%)” and the “% D.O.P.” value is reported as “A (>85%)”. In addition, the IC50 in test [2] was 0.1 to 1 µM.
As for `COc1ccc(NS(=O)(=O)c2c(F)c(F)c(F)c(F)c2OC2CCCC2)cc1F` [Compound I-70, 2-(cyclopentyloxy)-3,4,5,6-tetrafluoro-N-(3-fluoro-4-methoxyphenyl)benzenesulfonamide], in test [3], the “% Inhibition” value is “A (<10%)” and the “% D.O.P.” value was “A (>85%)”. Moreover, the IC50 in test [2] is greater than 10 µM.
`COc1ccc(NS(=O)(=O)c2c(F)c(F)c(F)c(F)c2Oc2ccc(F)cc2)cc1F` [Compound I-80, 2,3,4,5-tetrafluoro-N-(3-fluoro-4-methoxyphenyl)-6-(4-fluorophenoxy)benzenesulfonamide] gave an IC50 in test [2] of 0.1 to 1 µM.
Take `COc1ccc(CN(Cc2ccc(OC)cc2)S(=O)(=O)c2c(O)c(F)c(F)c(F)c2F)cc1` [Compound I-82, 2,3,4,5-tetrafluoro-6-hydroxy-N,N-bis(4-methoxybenzyl)benzenesulfonamide]: in test [3], the “% Inhibition” value was “B (10-20%)” and the “% D.O.P.” value was “A (>85%)”.
On to `CCOc1c(F)c(F)c(F)c(F)c1S(=O)(=O)Nc1ccc(OC)c(F)c1` [Compound I-85, 2-ethoxy-3,4,5,6-tetrafluoro-N-(3-fluoro-4-methoxyphenyl)benzenesulfonamide], for which the half-maximal inhibitory concentration (IC50) in test [4] was no more than 0.1 µM. Moreover, in test [3], the “% Inhibition” value was “A (<10%)” and the “% D.O.P.” value is given as “A (>85%)”.
For `CNc1c(F)c(F)c(F)c(F)c1S(=O)(=O)Nc1ccc(OC)c(F)c1` [Compound I-86, 2,3,4,5-tetrafluoro-N-(3-fluoro-4-methoxyphenyl)-6-(methylamino)benzenesulfonamide], in test [3], the “% Inhibition” value is “A (<10%)” and the “% D.O.P.” value is on record as “A (>85%)”. This molecule gave an IC50 in test [2] of 0.1 to 1 µM.
Turning to `COc1ccc(CNc2c(F)c(F)c(F)c(F)c2S(=O)(=O)Nc2ccc(OC)c(F)c2)cc1` [Compound I-87, 2,3,4,5-tetrafluoro-N-(3-fluoro-4-methoxyphenyl)-6-((4-methoxybenzyl)amino)benzenesulfonamide], in test [3], the “% Inhibition” value is on record as “A (<10%)” and the “% D.O.P.” value is listed as “A (>85%)”.
The matching figures for `COc1ccc(NS(=O)(=O)c2c(N)c(F)c(F)c(F)c2F)cc1F` [Compound I-88, 2-amino-3,4,5,6-tetrafluoro-N-(3-fluoro-4-methoxyphenyl)benzenesulfonamide]: “A (<10%)” and “A (>85%)”.
Consider `O=S(=O)(Nc1ccccc1)c1c(F)c(F)c(F)c(F)c1OC1CC1` [Compound I-95, 2-cyclopropoxy-3,4,5,6-tetrafluoro-N-phenylbenzenesulfonamide], for which the IC50 in test [2] was 1 to 10 µM.
Consider `O=S(=O)(Nc1ccc(F)cc1)c1c(F)c(F)c(F)c(F)c1OC1CC1` [Compound I-96, 2-cyclopropoxy-3,4,5,6-tetrafluoro-N-(4-fluorophenyl)benzenesulfonamide], for which, in test [3], the “% Inhibition” value was “A (<10%)” and the “% D.O.P.” value is “A (>85%)”. Further, the IC50 in test [2] is 0.1 to 1 µM.
`O=S(=O)(Nc1ccc(F)cc1F)c1c(F)c(F)c(F)c(F)c1OC1CC1` [Compound I-97, 2-cyclopropoxy-N-(2,4-difluorophenyl)-3,4,5,6-tetrafluorobenzenesulfonamide] gave an IC50 in test [2] greater than 10 µM.
`O=S(=O)(Nc1cc(F)c(F)cc1F)c1c(F)c(F)c(F)c(F)c1OC1CC1` [Compound I-98, 2-cyclopropoxy-3,4,5,6-tetrafluoro-N-(2,4,5-trifluorophenyl)benzenesulfonamide] displayed an IC50 in test [2] greater than 10 µM.
`O=S(=O)(Nc1cccc(Cl)c1)c1c(F)c(F)c(F)c(F)c1OC1CC1` [Compound I-99, N-(3-chlorophenyl)-2-cyclopropoxy-3,4,5,6-tetrafluorobenzenesulfonamide]: the IC50 in test [1] and in test [2] was greater than 10 µM each time.
Regarding `N#Cc1cccc(NS(=O)(=O)c2c(F)c(F)c(F)c(F)c2OC2CC2)c1` [Compound I-100, N-(3-cyanophenyl)-2-cyclopropoxy-3,4,5,6-tetrafluorobenzenesulfonamide], the IC50 in test [1] and in test [2] was greater than 10 µM throughout.
With `N#Cc1ccc(NS(=O)(=O)c2c(F)c(F)c(F)c(F)c2OC2CC2)cc1` [Compound I-101, N-(4-cyanophenyl)-2-cyclopropoxy-3,4,5,6-tetrafluorobenzenesulfonamide], the IC50 in test [2] was greater than 10 µM.
Consider `COC(=O)c1ccc(NS(=O)(=O)c2c(F)c(F)c(F)c(F)c2OC2CC2)cc1` [Compound I-102, methyl 4-((2-cyclopropoxy-3,4,5,6-tetrafluorophenyl)sulfonamido)benzoate], for which the IC50 in test [1] is greater than 10 µM; in test [2], 0.1 to 1 µM.
Turning to `O=S(=O)(Nc1ccc(Oc2ccccc2)cc1)c1c(F)c(F)c(F)c(F)c1OC1CC1` [Compound I-103, 2-cyclopropoxy-3,4,5,6-tetrafluoro-N-(4-phenoxyphenyl)benzenesulfonamide], the IC50 in test [2] was greater than 10 µM.
With `O=S(=O)(Nc1cccc2ccccc12)c1c(F)c(F)c(F)c(F)c1OC1CC1` [Compound I-104, 2-cyclopropoxy-3,4,5,6-tetrafluoro-N-(naphthalen-1-yl)benzenesulfonamide], in test [2], the concentration for half-maximal inhibition (IC50) was greater than 10 µM.
`C#CCN(c1ccc(OC)c(F)c1)S(=O)(=O)c1c(F)c(F)c(F)c(F)c1OC1CC1` [Compound I-124, 2-cyclopropoxy-3,4,5,6-tetrafluoro-N-(3-fluoro-4-methoxyphenyl)-N-(prop-2-yn-1-yl)benzenesulfonamide]: the IC50 in test [1] and in test [2] was 1 to 10 µM each time.
On to `CN(C)S(=O)(=O)c1c(F)c(F)c(F)c(F)c1OCCF` [Compound I-125, 2,3,4,5-tetrafluoro-6-(2-fluoroethoxy)-N,N-dimethylbenzenesulfonamide], for which the IC50 in test [1] is greater than 10 µM; in test [2], 1 to 10 µM.

For the origin of these results see patent publication US12559454B2, “Benzenesulfonamide derivatives and uses thereof” (2692372 Ontario, Inc., priority 2019, dated 2026).
